In the METLIN SMRT retention time set (Domingo-Almenara et al. 2019) one finds RP-LC retention time data, which are given here for 80 molecules.

The data set can be described thus: gradient 5% acetonitrile 3 min, to 50% in 2 min, to 85% in 15 min, held 3 min, 100 µL/min. The note with it: column: Zorbax Extend-C18 2.1 x 50 mm; eluents: water / acetonitrile, 0.1% formic acid. In short, it runs like this:
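Retention times of pure standards were taken from adduct peaks that were selected by computer and manually inspected. Over 3 months, mixtures of ~100 molecules were run by HPLC–quadrupole time-of-flight mass spectrometry in positive and negative ionization mode. The Zorbax Extend-C18 column (2.1 × 50 mm, 1.8 μm) ran at 100 μL/min in water and acetonitrile, each containing 0.1% formic acid, with 40 μL dead volume and 900 μL dwell volume.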
Turning to `O=S(=O)(c1cccn2c(SCc3c(F)cccc3Cl)nnc12)N1CCCC1`, the RP-LC retention time came to 855 s. For `O=C(Cc1csc2nc(-c3ccccc3)cn12)N1CCN(c2ccccc2)CC1` the value was 820 s; for `COCc1nncn1C1CCN(S(=O)(=O)c2cccc(F)c2)CC1`, 693 s. As to `Cc1nc(-c2cn(C(C)C)c3ncccc23)sc1C(=O)Nc1cccc(F)c1`, the RP-LC retention time worked out at 1140 s. For `COC(=O)C(Cc1ccccc1)NC(=O)C(NC(=O)OCc1ccccc1)C(C)C` (stereo not given), the RP-LC retention time is 894 s.

`COc1ccc(CN2CC3(CCN(S(=O)(=O)Cc4ccccc4)CC3)C2=O)cc1` showed an RP-LC retention time of 882 s. For `COc1cncc(C(=O)Nc2cc(F)ccc2Cl)c1` the value was 766 s; for `O=C(CCS(=O)(=O)c1ccc(Cl)cc1)Nc1nccs1`, 679 s; for `COc1cc(OC)c(NC(=O)N2CCCC2c2nncn2C2CCCC2)cc1Cl` (stereo not given), 668 s.

Molecule `Cc1cc(C)cc(N2CC(C)Cn3c2nc2c3c(=O)n(CC(=O)O)c(=O)n2C)c1` (stereo not given) returned an RP-LC retention time of 826 s. The molecule `Cn1cnc(S(=O)(=O)N2CCC(CCOc3ccccc3F)C2)c1` (stereo not given) registered an RP-LC retention time of 828 s. Molecule `O=C(Nc1nccs1)C1CCN(C(=O)Cc2c(F)cccc2Cl)CC1` showed an RP-LC retention time of 717 s.

`Clc1cccc(-c2ccc(CNCc3ccco3)o2)c1` registered an RP-LC retention time of 837 s. Turning to `Cc1cc(F)ccc1NC(=O)C1CN(S(=O)(=O)C2CC2)CC12CCCCC2` (stereo not given), the RP-LC retention time came out at 964 s.

On to `Cc1nnc(CNC(=O)c2cc(-c3cccs3)[nH]n2)o1`, for which the RP-LC retention time is 582 s. For `CC(=O)c1cccc(NC(=O)c2csc3c2CCCC3)c1` the value was 996 s; for `CC(C)C(=O)N1CCc2cc(C(=O)N(C)C)ccc21`, 678 s.

Consider `O=C(Nc1ccccc1Br)N1CCN(CCn2c(C(F)(F)F)nc3cccnc32)CC1`, for which the RP-LC retention time stood at 657 s. `N#Cc1ccc(NC(=O)Cn2cccc(-c3nc(-c4ccc(Cl)cc4)no3)c2=O)cc1` registered an RP-LC retention time of 933 s. For `O=C(C1=CN(c2cccc(C(F)(F)F)c2)c2cc(F)ccc2S1(=O)=O)N1CCOCC1` the value was 858 s. For `O=S(=O)(c1cccc(-c2nnc(-c3ccc(Cl)cc3)o2)c1)N1CCCCC1` the value was 1160 s. With `Cc1ccc(NC(=O)C2CCCN2S(=O)(=O)c2cc3c(cc2C)NC(=O)C(C)O3)cc1Cl` (stereo not given) the figure was 892 s; with `CCc1ccc(OCc2nc(CCN(C)C(=O)Nc3ccc(OC)cc3)no2)cc1`, 949 s.

The molecule `Cc1oc(C2CCN(C(=O)c3ccsc3)CC2)nc1C(=O)N1CCCCC1` came in with an RP-LC retention time of 745 s.

Consider `CCOc1cc(-c2ccccc2)nc2ccc(NC(=O)NCC(=O)OC)cc12`, for which the RP-LC retention time amounted to 651 s.

For the molecule `CCc1ccc(C(=O)NC2CCN(c3ccccc3)C2=O)cc1` (stereo not given), the RP-LC retention time is 811 s. In the case of `O=C(Cn1ccc2c(SCc3ccccc3)nccc21)N1CCN(c2ccccc2)CC1`, the RP-LC retention time was found to be 768 s. In turn, `Cc1ccc(-c2cn3c(CC(=O)Nc4ccc(F)c(Cl)c4)csc3n2)cc1C` yielded an RP-LC retention time of 678 s. For the molecule `Cc1nn(CC(=O)NC2CCCC2)c(=O)c2c(-n3cccc3)n(-c3cccc(F)c3)nc12`, the RP-LC retention time came out at 964 s.

Molecule `Cc1ccccc1Nc1c(-c2ccc(Cl)cc2)nc2ccc(Cl)cn12` gave an RP-LC retention time of 1050 s. Turning to `COc1ccc(Cn2c(=O)c3sccc3n(Cc3nc(-c4ccc(C)c(C)c4)no3)c2=O)cc1`, the RP-LC retention time was 1180 s. In the case of `Cc1cc(N2CCOCC2)nc(N2CCN(S(=O)(=O)c3ccc(Br)cc3)CC2)n1`, the RP-LC retention time was determined as 718 s. Turning to `Cn1nc(-c2nnc(-c3ccccc3F)o2)c2c1CCN(S(=O)(=O)c1ccc3c(c1)CCC3)C2`, the RP-LC retention time was determined as 1010 s. With `CCc1ccccc1NC(=O)C1(C)Oc2cccnc2N(C(C)C)C1=O` (stereo not given) the figure was 1010 s; with `O=C(NC1CCN(Cc2ccccc2)CC1)C1CCCN(c2cnc3nccnc3c2)C1` (stereo not given), 907 s; with `O=C1c2cccc(OCC(=O)N3CCCc4ccccc43)c2CCN1Cc1cccnc1`, 594 s. The molecule `O=C(CN1C(=O)CCCc2ccccc21)N1CCN(C(=O)c2ccco2)CC1` returned an RP-LC retention time of 678 s.

The molecule `CCN1CCN(CCCNC(=O)C2CCCN(c3nnc(-n4c(C)ccc4C)s3)C2)CC1` (stereo not given) had an RP-LC retention time of 592 s. As for `CC1Oc2ccccc2N(Cc2nc(-c3ccccc3)no2)C1=O` (stereo not given), the RP-LC retention time came out at 1040 s. For `COCCCNCc1c(C(=O)O)c(C)n(Cc2ccccc2Cl)c1C` the value was 688 s; for `COc1ccc(S(=O)Cc2ccc(C(=O)NCCCN3CCc4ccccc4C3)o2)cc1` (stereo not given), 619 s.

For `O=C(C1CCOC1)N1CCC(N(Cc2ccccc2)C2CCOCC2)CC1` (stereo not given), the RP-LC retention time came to 572 s. `CCn1cc(C)c(C(=O)O)c1CC(=O)NCc1ccc(C)cc1` came in with an RP-LC retention time of 772 s. On to `c1ccc(-c2nc(-c3ccccn3)nc(-c3ccccn3)n2)nc1`, for which the RP-LC retention time is 644 s.

For `COc1ccc(NC(=O)NC(C(=O)N2CCc3ccccc32)C(C)C)c(OC)c1` (stereo not given), the RP-LC retention time was 934 s.

The molecule `Cc1cccc(-n2c(N3CCCC(C(=O)NCc4cccs4)C3)nc3ccsc3c2=O)c1` (stereo not given) came in with an RP-LC retention time of 876 s.

As for `NC(=O)C1CCN(C2CC(=O)N(Cc3ccccc3)C2=O)CC1` (stereo not given), the RP-LC retention time stood at 579 s. For `COc1cc(C(C)=O)ccc1OCC(=O)NCCn1cnc(-c2ccc(F)cc2)cc1=O`, the RP-LC retention time amounted to 661 s. On to `Cc1ccc2c(c1)N(S(C)(=O)=O)CCC(C(=O)Nc1ccccc1C)O2` (stereo not given), for which the RP-LC retention time is 894 s. For `Cc1ccc(C(O)Cn2ccn3nc(-c4cccs4)cc3c2=O)cc1` (stereo not given), the RP-LC retention time was determined as 893 s. As to `Cc1cc(N2CCN(C)CC2)nc2ccc(NC(=O)NCc3ccco3)cc12`, the RP-LC retention time amounted to 564 s. With `O=C(NCc1csc(C2CCN(C(=O)c3c(F)cccc3F)CC2)n1)C1CCC1` the figure was 740 s; with `COc1ccc(-n2c(=O)c3sccc3n(Cc3nc(-c4ccc(Cl)c(F)c4)no3)c2=O)cc1`, 1060 s.

In turn, `COc1ccc(NS(=O)(=O)c2cn(C)c3ncccc23)cc1` gave an RP-LC retention time of 740 s.

In turn, `CCC(=O)N1CCc2c([nH]c3ccccc23)C12C(=O)N(C)c1ccc(Br)cc12` (stereo not given) registered an RP-LC retention time of 939 s. For the molecule `COc1ccc2[nH]c(=O)c(CCC(=O)NCCCOC(C)C)cc2c1`, the RP-LC retention time was found to be 649 s. As to `COC(=O)c1cc2c(=O)n(-c3ccc4c(c3)OCCO4)ccc2nc1C`, the RP-LC retention time was 780 s.

Molecule `CN(C)c1cccc(C(=O)Nc2cc(-c3cccs3)no2)c1` returned an RP-LC retention time of 970 s. Consider `COc1ccccc1CCNC(=O)Cc1csc(NC(=O)c2ccco2)n1`, for which the RP-LC retention time is 700 s. As for `COc1ccc(Cn2nc3c(S(=O)(=O)N4CCCCCC4)cccn3c2=O)cc1`, the RP-LC retention time worked out at 909 s. Molecule `Cc1cc(-c2nnc3sc(COc4ccc(C(C)(C)C)cc4)nn23)n[nH]1` gave an RP-LC retention time of 967 s. With `O=S(=O)(c1ccc(Br)cc1)N1CCc2nc(-c3ccc(F)cc3)ncc2C1` the figure was 1170 s.

Molecule `c1cc(CN2CCCCC2)cc(OCCCNc2nc3ccccc3s2)c1` displayed an RP-LC retention time of 665 s.

Molecule `CCOc1cc(Cl)c(S(=O)(=O)NCc2ccccn2)cc1Cl` returned an RP-LC retention time of 715 s. In turn, `O=C(Cn1cc(-c2ccccc2)c2ncnc(N3CCOCC3)c21)NCc1ccc(Cl)cc1` came in with an RP-LC retention time of 778 s. `COc1cccc(S(=O)(=O)Nc2ccc3c(c2)CCC(=O)N3CC(C)C)c1` showed an RP-LC retention time of 868 s. For `Cc1cc(NC(=O)CSc2nnc(CCc3nc4ccccc4[nH]3)o2)no1`, the RP-LC retention time turned out to be 553 s.

Molecule `CSc1nc2ccc3nc(NC(=O)c4cc(C)no4)sc3c2s1` returned an RP-LC retention time of 1010 s.

In turn, `Cc1ccc(NC(=O)Cn2c(=O)n(-c3ccccc3)c(=O)c3c2cc(C)n3C)cc1` gave an RP-LC retention time of 827 s. Consider `Clc1ccc(-c2ccc(CNCc3ccccn3)o2)c(Cl)c1`, for which the RP-LC retention time is 734 s. On to `CCn1c(=O)c2ccccc2n(Cc2nc(-c3ccc(Br)cc3)no2)c1=O`, for which the RP-LC retention time was found to be 1110 s. As for `Cc1ccc(NC(=O)C(C)C2CCN(C(=O)Nc3ccc(F)cc3)CC2)cc1Cl` (stereo not given), the RP-LC retention time came to 974 s. In the case of `CC(=O)N1c2ccc(S(=O)(=O)N3CCCCC3)cc2CC1C(=O)NCCN(C)C` (stereo not given), the RP-LC retention time stood at 601 s. `O=C(CCc1c[nH]c2ccccc12)NC1CCN(c2ccc(=O)[nH]n2)C1` (stereo not given) yielded an RP-LC retention time of 595 s.

Consider `CCCCCn1c(=O)c2ccccc2n(Cc2nc(-c3cc(OC)cc(OC)c3)no2)c1=O`, for which the RP-LC retention time is 1270 s.

`CN(CCc1noc(-c2ccccc2)n1)C(=O)Nc1ccc(F)c(Cl)c1` displayed an RP-LC retention time of 954 s.

Molecule `Cc1ccc(S(=O)(=O)Nc2ccc(C3(C(=O)NCC4CCCO4)CC3)cc2)cc1` (stereo not given) had an RP-LC retention time of 824 s.

In turn, `CC1CCC(NC(=O)C2CCN(S(=O)(=O)c3ccc4c(c3)sc(=O)n4C(C)C)CC2)CC1` (stereo not given) yielded an RP-LC retention time of 1020 s. `CCNC(=O)c1nccnc1NC(=O)c1ccccc1`: the RP-LC retention time was 743 s. Take `NC(=O)C1CCN(C(=O)CN2CCN(c3ccccc3)CC2)CC1`: the RP-LC retention time was found to be 582 s.
